In PMC8200971, “Design, Synthesis, Biological Evaluation and Silico Prediction of Novel Sinomenine Derivatives” (Molecules, 2021):

Experiments:
[1] = system: A549 (human lung adenocarcinoma cell lines); assay: CCK8 cytotoxicity assay; assay type: cell-based; details: Homo sapiens, A549, 60 h, read-out: growth inhibition ratio (mean ± SD)
Method: (§1) Cytotoxicity screens were performed to assess the in vitro anticancer activity of the synthesized sinomenine derivatives 6a–6l on the various cancer cell lines MCF-7, Hela, SW480, and A549, as well as on Hek293 as a normal cell line, at doses of 2.5 and 25 μM. The obtained inhibition ratios data were used to construct a heat map (Figure 3, Tables S1 and S2) in order to select compounds that exert cancer cell line-specific cytotoxicity. Then, the IC50 values of the promising compound were determined. Cisplatin was used as a reference standard. The antiproliferative activity was based on the evaluation of the percent viability using the CCK8 assay, which is a rapid and sensitive method for determining the number of viable cells in culture. In the presence of electronic coupling reagents, WST-8 can be reduced by a dehydrogenase in the mitochondria to produce a highly water-soluble orange-yellow formazan product. Its color is proportional to the proliferation of the number of viable cells and is related to cytotoxicity. Using a microplate reader to measure the OD value can indirectly reflect the number of living cells at 450 nm wavelength.
(§2) To understand structure–function relationships, these selected compounds were subjected to subsequent analyses. All six compounds (6a and 6c–6g) were further examined to determine their IC50 concentrations on the previously mentioned cell lines, and their efficacy was compared to the reference drug cisplatin. For this, six compounds and cisplatin were evaluated on Hela, MCF-7, SW480, and A549, and on noncancerous Hek293 cell lines at various concentrations for 60 h. IC50 values were calculated (Table 2).
(§3) The MCF-7 (human breast cancer cell lines), Hela (human cervical cancer cell lines), SW480 (human colon adenocarcinoma cell lines), A549 (human lung adenocarcinoma cell lines) and nontoxic normal cells Hek293 (human embryonic kidney cell lines) cells were used to measure the cytotoxicity of the 6a–6l. They were obtained from the Beijing Normal University (Beijing, China). The test cell lines were cultured in DMEM, IMDM, F12 and DMEM nutrient medium containing 10% heat-inactivated fetal bovine serum, […] and 100 units/mL penicillin in a humified, 5% (v/v) CO2 atmosphere at 37 °C.
(§4) Cell viability was estimated using the CCK8 assay. Tumor cells ([…]) viz. MCF-7, Hela, SW480, A549 and nontoxic normal cells Hek293 were seeded in medium containing Corning® 96-well tissue culture plates at confluences of […], respectively, in Incucyte ZOOM. Fresh medium (100 μL) containing different concentrations of the test sample was added after 12 h of seeding. The microtiter plates were incubated at 37 °C in a humidified incubator with 5% CO2 for 60 h. Triplicates from each concentration were used. Negative control cells were incubated without sample and cisplatin as a positive control. At the end of treatment, the numbers of viable cells were determined by the CCK8 test. In brief, the media was removed from the 96 well plates and replaced with 100 μL of fresh culture medium with 10% CCK8 solution added to each well including the untreated controls. The 96 well plates were then incubated at 37 °C and 5% CO2 for 1–4 h. Then, the absorbance was measured at 450 nm using a BMG LABTECH®-POLAR star Omega microplate reader (Ortenberg, Germany) to determine the number of viable cells, and the percentage of viability was calculated as ((ODt- ODb/ODc- ODb)) × 100%, where ODt is the mean optical density of wells treated with the tested sample, ODc is the mean optical density of wells treated with DMSO and ODb is the mean optical density of PBS wells without cells. The relation between surviving cells and drug concentrations were plotted to get the survival curve of each tumor cell line after treatment with the specified compound. […]

[2] = system: Hela (human cervical cancer cell lines); assay: CCK8 cytotoxicity assay; assay type: cell-based; details: Homo sapiens, HeLa, 60 h, read-out: growth inhibition ratio (mean ± SD)
Method: as §1, §2, §3, §4

[3] = system: MCF-7 (human breast cancer cell lines); assay: CCK8 cytotoxicity assay; assay type: cell-based; details: Homo sapiens, MCF7, 60 h, read-out: growth inhibition ratio (mean ± SD)
Method: as §1, §2, §3, §4

[4] = system: SW480 (human colon adenocarcinoma cell lines); assay: CCK8 cytotoxicity assay; assay type: cell-based; details: Homo sapiens, SW480, 60 h, read-out: growth inhibition ratio (mean ± SD)
Method: as §1, §2, §3, §4

[5] = system: Hek293 (human embryonic kidney cell lines); assay: CCK8 cytotoxicity assay, normal cells; assay type: cell-based; details: Homo sapiens, HEK293, 60 h, read-out: growth inhibition ratio (mean ± SD)
Method: as §1, §2, §3, §4

Row | SMILES | melting point [°C] | inhibition at 2.5 µM [1] [%] | inhibition at 25 µM [1] [%] | inhibition at 2.5 µM [2] [%] | inhibition at 25 µM [2] [%] | inhibition at 2.5 µM [3] [%] | inhibition at 25 µM [3] [%] | inhibition at 2.5 µM [4] [%] | inhibition at 25 µM [4] [%] | inhibition at 2.5 µM [5] [%] | inhibition at 25 µM [5] [%]
1 | COC1=C[C@@H]2[C@@H]3Cc4c(CN5CCCCC5)cc(OC)c(OC(=O)Cc5ccc(F)cc5)c4[C@]2(CCN3C)CC1=O [5k, (4bR,8aS,9S)-3,7-dimethoxy-11-methyl-6-oxo-1-(piperidin-1-ylmethyl)-6,8a,9,10-tetrahydro-5H-9,4b-(epiminoethano)phenanthren-4-yl 2-(4-fluorophenyl)acetate] | 128 to 130 |  |  |  |  |  |  |  |  |  | 
2 | COC1=C[C@@H]2[C@@H]3Cc4c(CN5CCCC5)cc(OC)c(OC(=O)Cc5ccc(OC)c(OC)c5)c4[C@]2(CCN3C)CC1=O [6b, (4bR,8aS,9S)-3,7-dimethoxy-11-methyl-6-oxo-1-(pyrrolidin-1-ylmethyl)-6,8a,9,10-tetrahydro-5H-9,4b-(epiminoethano)phenanthren-4-yl 2-(3,4-dimethoxyphenyl)acetate] | 80 to 83 | 0 | 30.9 ± 0.32 | 2.03 ± 2.29 | 11.5 ± 4.88 | 3.63 ± 3.16 | 2.7 ± 4.67 | 22.9 ± 6.49 | 29.5 ± 11.2 | 0.66 ± 1.14 | 45.9 ± 1.35
3 | COC1=C[C@@H]2[C@@H]3Cc4c(CN5CCCCC5)cc(OC)c(OC(=O)Cc5ccc(OC)c(OC)c5)c4[C@]2(CCN3C)CC1=O [5c, (4bR,8aS,9S)-3,7-dimethoxy-11-methyl-6-oxo-1-(piperidin-1-ylmethyl)-6,8a,9,10-tetrahydro-5H-9,4b-(epiminoethano)phenanthren-4-yl 2-(3,4-dimethoxyphenyl)acetate] | 151 to 154 |  |  |  |  |  |  |  |  |  | 
4 | COC1=C[C@@H]2[C@@H]3Cc4c(CN5CCCCC5)cc(OC)c(OC(=O)Cc5ccccc5C)c4[C@]2(CCN3C)CC1=O [5d, (4bR,8aS,9S)-3,7-dimethoxy-11-methyl-6-oxo-1-(piperidin-1-ylmethyl)-6,8a,9,10-tetrahydro-5H-9,4b-(epiminoethano)phenanthren-4-yl 2-(o-tolyl)acetate] | 177 to 178 |  |  |  |  |  |  |  |  |  | 
5 | COC1=C[C@@H]2[C@@H]3Cc4c(CN5CCCCC5)cc(OC)c(OC(=O)Cc5ccc(Cl)cc5)c4[C@]2(CCN3C)CC1=O [5a, (4bR,8aS,9S)-3,7-dimethoxy-11-methyl-6-oxo-1-(piperidin-1-ylmethyl)-6,8a,9,10-tetrahydro-5H-9,4b-(epiminoethano)phenanthren-4-yl 2-(4-chlorophenyl)acetate] | 105 to 107 |  |  |  |  |  |  |  |  |  | 
6 | COC1=C[C@@H]2[C@@H]3Cc4c(CN5CCCC5)cc(OC)c(OC(=O)Cc5ccc([N+](=O)[O-])cc5)c4[C@]2(CCN3C)CC1=O [6j, (4bR,8aS,9S)-3,7-dimethoxy-11-methyl-6-oxo-1-(pyrrolidin-1-ylmethyl)-6,8a,9,10-tetrahydro-5H-9,4b-(epiminoethano)phenanthren-4-yl 2-(4-nitrophenyl)acetate] | 82 to 85 | 15.4 ± 5.6 | 38.7 ± 8.59 | 0 | 3.75 ± 0.91 | 3.64 ± 6.3 | 1.97 ± 2.75 | 0 | 0.92 ± 1.34 | 20.5 ± 6.76 | 56.1 ± 7.28
